According to patent US6852696B2, “Inhibitors of glycosaminoglycans” (The University of Texas System, priority 1999, dated 2005):

Experiments:
Langerhans cells (LC) [1] = test: Hapten (DNFB)-triggered LC emigration from the epidermis; format: in vivo, BALB/c mice; settings: two local injections before DNFB
Description: FIG. 3. Impact of multimeric Pep-1 derivatives on hapten-induced LC migration. BALB/c mice received two local injections of the indicated Pep-1 derivatives in the right ear (closed circles) and the indicated RP derivatives in the left ear 24 and 3 hours before topical application of 0.5% DNFB on both ears. All the peptides were administered at the identical dose in terms of the molarity ([…]) of the 16-mer Pep-1 peptide sequence, i.e., 40 μg/injection/ear for monomeric Pep-1 and RP, […] for dimeric Pep-1 and RP, or 160 μg/injection/ear for PEG-conjugated tetrameric Pep-1 and RP. Ear skin samples were harvested at the indicated time points after DNFB painting and examined for surface densities of IA^+ LC. Data shown are the means+/−s.e.m.(n=3) of % LC emigration as calculated by dividing from the formula: [(LC number before DNFB application−LC number after DNFB application)/LC number before DNFB application]×100. Asterisks indicate statistically significant differences between the Pep-1 and the RP panels (**p<0.01 by two-tailed Student's t-test).
Pep-1 and its dimeric and tetrameric derivatives were compared for their in vivo activities to prevent hapten-triggered LC emigration from the epidermis.

B16-F10 melanoma cells = test: Local growth of s.c. inoculated B16-F10 melanoma; format: in vivo, C57BL/6 mice; settings: 40 μg/injection locally, days 0, 3, 6; measured day 10
Description: FIGS. 4A-C. Impact of Pep-1 on lung metastasis of melanoma. (FIG. 4A) B16-F10 melanoma cells were suspended (4×10^5 cells/ml) in PBS containing Pep-1 monomer (2 or 3 mg/ml) (circles) or 2% DMSO alone (triangles). C57BL/6 mice received i.v. injection of these cell suspensions (500 μl/animal) and were examined for survival. Data shown are the cumulative survival curves from four independent experiments (n=37 for Pep-1 and n=20 for PBS control). […] (FIG. 4B) B16-F10 melanoma cells (1×10^5 cells/animal) were s.c. injected into the back of C57BL/6 mice. Pep-1 or RP (40 μg/injection) was injected locally into the tumor inoculation sites 0. 3. and 6 days after tumor injection. Data shown are the means+/−s.e.m. (n=10) of tumor sizes and tumor weights measured 10 days after tumor inoculation. (FIG. 4C) B16-F10 melanoma cells (2×10^5 cells/well) were cultured in the presence of the indicated concentrations of Pep-1 (closed circles) or PR (open circles). Data shown are the means+/−s.e.m.(n=3) of ^3H-thymidine uptake at 24 hr.

[2] = test system: XS52 DC and HDK-1 T cells; test: Cytokine secretion in XS52 DC / HDK-1 T cell / KLH co-culture (ELISA); format: cell-based; settings: 500 μg/ml; dose-dependent
Description: FIGS. 7A-C. Impact of tetrameric LIP on cytokine production during antigen presentation. (FIG. 7A) XS52 DC (0.2×10^6 cells/well) were cultured in the presence or absence of the KLH-reactive CD4^+ Thl clone HDK-1 (0.2×10^6 cells/well) and/or KLH (100 μg/ml). Culture supernatants collected at 24 hrs were examined for the indicated cytokines by ELISA. Data shown are the means+/−s.e.m. from triplicate samples. (FIG. 7B) XS52 DC and HDK-1 T cells were co-cultured with KLH in the presence of the indicated concentrations of Pep-1. Culture supernatants collected at 24 hrs were examined for the indicated cytokines by ELISA. (FIG. 7C) CD4^+ T cells isolated from DO11.10 transgenic mice (5×10^4 cells/well) were co-cultured with the indicated numbers of splenic DC isolated from BALB/c mice and the OVA peptide (2 μg/ml) in the presence of 500 μg/ml of Pep-1 (open circles), RP (triangles), or DMSO alone (closed circles). Co-cultures of CD4^+ T cells and DC in the absence of OVA peptide served as a control (square). All the cultures were examined for ^3H-thymidine uptake on Day 3. Data shown are the means+/−s.d. from triplicate samples.
During antigen-specific interaction DC delivers activation signals to T cells, leading to differentiation and clonal expansion of antigen-reactive T cells. At the same time, T cells deliver signals back to DC, leading to “terminal maturation” of DC^80. To test the potential impact of Pep-1 on this bi-directional DC-T cell interaction, the present inventors employed a fully characterized in vitro experimental system in which XS52 DC are cultured with a KLH-reactive CD4^+ Th1 clone HDK-1 in the presence of antigen (KLH)^81-85.

Langerhans cells (LC) [3] = settings: co-pending application 60/126,475; cited from earlier work

For GAHWQFNALTVR [Pep-1], the “inhibition of LC emigration” value (Langerhans cells (LC) [1]; 24 hr after DNFB application) was “inhibited LC emigration almost completely”, the “inhibition of LC emigration” value (Langerhans cells (LC) [1]; 48 hr after DNFB application) was “kinetics comparable to those observed in the control group receiving random peptide (RP) injections” and the “inhibition of LC emigration” value (Langerhans cells (LC) [1]; 72 hr after DNFB application) was “kinetics comparable to those observed in the control group receiving random peptide (RP) injections”. The “effect on local growth in animals following s.c. inoculation” value (B16-F10 melanoma cells) was “no apparent effects”, the “inhibition of IL-6 secretion” value [2] was “almost complete inhibition” and the “inhibition of TNFα secretion” value [2] was “almost complete inhibition”. For the same sequence, the “inhibition of interferon-γ secretion” value [2] was “almost complete inhibition” and the “inhibition of sensitization phase / hapten-triggered LC migration” value (Langerhans cells (LC) [3]) was “blocking hapten-triggered migration of Langerhans cells”.
